Series [1] is described as follows: Volume of distribution after i.v. administration (literature). To be noted: in vivo, iv, Rat, calculated using previously published data ref 17, read-out: Vd ss. From the text: TABLE 7 Volume of distribution for SCY-078 and echinocandins after i.v. administration | column: Vd ss (liters/kg)^a / Anidulafungin
The conditions of series [2]: Rabbit, cited from earlier work.
For series [3] the following is noted: Human, cited from earlier work.
For series [4] the following is noted: cited from earlier work.
For series [5] the following is noted: Mouse, cited from earlier work.
Series [6] concerns C. albicans MY1055. Briefly: Immediate treatment murine model of disseminated candidiasis.
For series [7] the following is noted: Rat, i.v. ref 26; cited from earlier work.
Details of series [8]: method as in ref 26 = [26]; 26. Yamato Y , Kaneko H , Hashimoto T , Katashima M , Ishibashi K , Kawamura A , Terakawa M , Kagayama A 2002 Pharmacokinetics of the anti-fungal drug micafungin in mice, rats and dogs, and its in vit. The note with it: Dog, i.v. ref 26; cited from earlier work.

Read-outs that look alike come from different tables or passages of the source. *1 amine or outer side, *2 acyl side, *3 side chain or, on linkers, in order; H or OH if unused. Where a SMILES comes first, the peptide text is derived from it. Bridges are numbered along the chain shown (N, C = ends). [ ]: non-standard residue; d: D form. The star is where a group is joined. hTyr(3S-OH,4S-OH,3'-OSO3H) = N[C@H](C(=O)O)[C@H](O)[C@@H](O)c1ccc(O)c(OS(=O)(=O)O)c1; pTerphenylCO(4''-OnC5H11) = CCCCCOc1ccc(-c2ccc(-c3ccc(C(=O)*)cc3)cc2)cc1; Orn(4R-OH,5R-OH) = O=C([C@H](C[C@@H](O)[C@@H](O)N[*:3])N[*:1])[*:2]; hTyr(3S-OH,4S-OH) = N[C@H](C(=O)O)[C@H](O)[C@@H](O)c1ccc(O)cc1; Pro(3S-OH,4S-Me) = C[C@H]1CN[C@H](C(=O)O)[C@H]1O; X1 = CCCCCOc1ccc(-c2cc(-c3ccc(C(=O)*)cc3)no2)cc1; Gln(3R-OH) = NC(=O)C[C@@H](O)[C@H](N)C(=O)O; Hyp = O=C(O)[C@@H]1C[C@@H](O)CN1

Take `CCCCCOc1ccc(-c2ccc(-c3ccc(C(=O)N[C@H]4C[C@@H](O)[C@@H](O)NC(=O)[C@@H]5[C@@H](O)[C@@H](C)CN5C(=O)[C@H]([C@@H](C)O)NC(=O)[C@H]([C@H](O)[C@@H](O)c5ccc(O)cc5)NC(=O)[C@@H]5C[C@@H](O)CN5C(=O)[C@H]([C@@H](C)O)NC4=O)cc3)cc2)cc1` [Anidulafungin, anidulafungin] ({pTerphenylCO(4''-OnC5H11)}-[Orn(4R-OH,5R-OH)]T[Hyp][hTyr(3S-OH,4S-OH)]T[Pro(3S-OH,4S-Me)]; lactam 1-C): in series [1], the Vd (usually a proportionality between amount in the body and measured concentration, not a real space) was 2.16 L/kg. The Vd ss was 0.93–1.23 ([28]) liters/kg in series [2] (i.v. ref 28) and 0.5 L/kg in series [3] (i.v. ref 31). Further, the Kidney/plasma ratio in series [4] (after i.v. delivery to rodents ref 17) is reported as 10.7.

On to `CC[C@H](C)C[C@H](C)CCCCCCCCC(=O)N[C@H]1C[C@@H](O)[C@@H](NCCN)NC(=O)[C@@H]2[C@@H](O)CCN2C(=O)[C@H]([C@H](O)CCN)NC(=O)[C@H]([C@H](O)[C@@H](O)c2ccc(O)cc2)NC(=O)[C@@H]2C[C@@H](O)CN2C(=O)[C@H]([C@@H](C)O)NC1=O` [Caspofungin, caspofungin], for which the Vd ss in series [5] (i.v. ref 22) was 0.25 L/kg; in series [5] (i.v. ref 25) it was 0.45 L/kg; in series [2] (i.v. ref 25), 0.28 L/kg; in series [2] (i.v. ref 29), 0.26 L/kg; in series [3] (i.v. ref 31), 0.14 ([31]) liters/kg. The Kidney/plasma ratio result in series [4] (after i.v. delivery to rodents ref 22) is “approximately 2.9”; in series [4] (after i.v. delivery to rodents, based on the total radioactivity over 24 h ref 23), 2.8. For the same compound, the “Dose effective in clearing kidney fungal burden” value in series [6] (administered intraperitoneally twice daily (data not shown)) was at least 0.125 mg/kg.

In the case of `OC(Cn1cncn1)(Cn1cncn1)c1ccc(F)cc1F` [FLU, fluconazole, reference compound], the “Clearance of fungal infection” value in series [6] (up to 5 mg/kg p.o. BID) is “did not result in clearance of fungal infection in any of the animals tested”.

With `CCCCCOc1ccc(-c2cc(-c3ccc(C(=O)N[C@H]4C[C@@H](O)[C@@H](O)NC(=O)[C@@H]5[C@@H](O)[C@@H](C)CN5C(=O)[C@H]([C@H](O)CC(N)=O)NC(=O)[C@H]([C@H](O)[C@@H](O)c5ccc(O)c(OS(=O)(=O)O)c5)NC(=O)[C@@H]5C[C@@H](O)CN5C(=O)[C@H]([C@@H](C)O)NC4=O)cc3)no2)cc1` [Micafungin, micafungin] (X1-[Orn(4R-OH,5R-OH)]T[Hyp][hTyr(3S-OH,4S-OH,3'-OSO3H)][Gln(3R-OH)][Pro(3S-OH,4S-Me)]; lactam 1-C), the Vd ss in series [5] (i.v. ref 26) was 0.38–0.49 ([26]) liters/kg; in series [7] it was 0.42–0.56 ([26]) liters/kg; in series [8], 0.23–0.25 ([26]) liters/kg; in series [2] (i.v. ref 30), 0.313 ([30]) liters/kg; in series [3] (i.v. ref 31), 0.21 to 0.24 L/kg; in series [3] (i.v. ref 32), 0.26 L/kg. The Kidney/plasma ratio in series [4] (after i.v. delivery to rodents ref 24) was 3.4.

These data come from article PMC5365645, “Preclinical Pharmacokinetics and Pharmacodynamic Target of SCY-078, a First-in-Class Orally Active Antifungal Glucan Synthesis Inhibitor, in Murine Models of Disseminated Candidiasis” (Antimicrobial Agents and Chemotherapy, 2017).
